Read-outs that look alike come from different tables or passages of the source.
Assays:
Gli1 Gene = experiment: Gli1 mRNA expression in tumor tissues (RT-qPCR), Shh signaling pathway analysis; type: in vivo, CB-17/SCID mice; conditions: for mRNA Expression Level of Glil Gene: tumor tissue 2 hours after last administration, GAPDH internal reference
Source text: Table 7-1 The Grouping and Drug Administration Plan
Primary tumor cells were extracted from Math1-Cre/Ptch1 ^C/C mice with spontaneous medulloblastoma and subcutaneously inoculated into CB-17/SCID mice to establish a xenograft model of medulloblastoma.
CB-17/SCID mice were subcutaneously injected with primary extracted medulloblastoma cells. After 3-4 weeks, a subset of mice developed tumors with volumes ranging from 150 to 300 mm^3.
From these mice, 25 tumor-bearing mice with uniform tumor sizes (with CV < 30%, CV = SD/Mean) were selected and randomly divided into 5 experimental groups (Vehicle, GDC-0449-10 mg/kg, Compound A-10 mg/kg, Compound A-3 mg/kg, Compound A-1 mg/kg) according to Table 2. Each group consisted of 5 mice per cage. Administration began on the day after grouping. The administration period was 3 days, with a frequency of BID. Tumor tissues were collected 2 hours after the last administration, and the mRNA expression level of the Glil gene in the tumor tissues was analyzed by RT-qPCR.
The tumor tissues were lysed by RNAiso Plius (TaKaRa, 108-95-2) to extractand RNA was then extracted using chloroform extraction and isopropanol precipitation methods. Subsequently, the mRNA level of the Glil gene was detected using a real-time fluorescence quantitative PCR instrument (ABI 7500), with GAPDH serving as the internal reference for quantitative analysis.
Experimental data in all tables are presented as "mean ± standard deviation" with error bars in figures representing standard error of the mean (SEM). Student's t-test was used to compare statistical differences in Glil gene mRNA expression levels in tumor tissues among treatment groups. All data were analyzed using GraphPad Prism 5.0. P-value <0.05 was considered statistically significant. ***, P<0.001; ##, P<0.01.
Glil is a target gene of the Hedgehog signaling pathway, and its mRNA expression level reflects the activation status of the hedgehog signaling pathway.

[1] = body weight of tumor-bearing mice during treatment; conditions: for Mean Body Weight at Day 0: before treatment; for Body Weight Change Rate (%) / Mean Body Weight at Dosing Endpoint: 17 days
in vivo = conditions: rat, po, 10 mg/kg
Experimental: Solvent A: 0.5% CMC-Na +0.2% Tween80
Preparation method: 5 g of sodium carboxymethyl cellulose (CMC-Na) was accurately weighed, 2 mL of Tween 80 was added, 998 mL of purified water was added, stirred and evenly mixed on a magnetic stirrer, and stored at room temperature.
After administration, blood was taken at different time points through orbit, and the blood samples were placed in a tube containing heparin sodium (as an anticoagulant), centrifuged by a cryocentrifuge and then stored in an environment of -80°C. An appropriate amount of plasma sample (50 µL) was taken into which (200 µL) cold acetonitrile containing the internal standard was added. The plasma protein was precipitated by centrifugation for 10 minutes. Finally, 100 µL of the supernatant was added and diluted with 100 µL of pure water and then injected into an LC-MS/MS system for analysis.
LC-MS/MS analysis method: All samples were analyzed by an LC-MS/MS system of an API 3000 mass spectrometer equipped with an Agilent 1100 series of liquid phase systems (Agilent, Japan). Column: Agilent XORBAX, XDB-C8 (50×2.1mm;3.5µm). Column temperature: room temperature, flow rate: 0.4 mL/min, total running time:7min.
For the quantitative analysis of MS/MS, the API3000 mass spectrometer is operated in the positive ESI mode with multiple reaction monitoring (MRM). All compounds and internal standards were monitored with a dwell time of 200 milliseconds. Other MS/MS parameter settings are as follows: Nebulizer gas (NEB): 12 psi, Gas curtain gas (CUR): 7 psi, Collision gas (CAD): 4 psi, Ion spray voltage: 5000V, Ion source temperature:500 °C. For the transitions of the selected ions, each analyte was tested under the optimal sensitivity clustering potential (DP) and collision energy (CE). Finally, the data were collected and processed using the SCIEX Analyst 1.5.2 data processing software system.
Preparation method: 0.1 g of sodium carboxymethyl cellulose (CMC-Na) was accurately weighed, 20 ml of purified water was added, and ultrasonic stirring was performed to dissolve it to obtain 0.5% CMC-Na.

[2] = SCID tumor-bearing mice, i.g. BID × 3 days
[3] = pharmacokinetic study in mice; conditions: same dose, intragastric administration
[4] = tested on: primary extracted medulloblastoma cells; experiment: antitumor efficacy against medulloblastoma, subcutaneous xenograft model; type: in vivo, CB-17/SCID mice; conditions: for Tumor Volume at Day 0 (mm^3): before treatment; for T/C (%) / Tumor Volume at Dosing Endpoint (mm^3) / TGI (%): 17 days; for Tumor Volume at Dosing Endpoint (mm^3): volume on Day 18; for Fold Change in Tumor Volume: Day 18 compared to Day 0; for anti-tumor efficacy compared to the high-dose GDC-0449 (10 mg/kg) group: after 17 days of treatment;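 for all read-outs here: male CB-17/SCID mice bearing subcutaneous tumors, randomized at 150-300 mm^3, tumor volume from caliper diameters as 0.5 × longest × shortest squared, measured twice weekly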
Experimental: 60 male CB-17/SCID mice (aged 6-8 weeks) were purchased from Shanghai SLAC Laboratory Animal Co., Ltd. Animals were housed in individually ventilated cages (IVCs), with five mice per cage. Housing conditions were as follows: temperature was maintained at 20-26°C; humidity was 30-70%; 12 hours of light and 12 hours of darkness.
30 mice with uniform tumor sizes (Coefficient of Variation, CV < 30%, CV = Standard Deviation / Mean) were selected from this group. These mice were selected and randomly divided into five experimental groups according to Table 6-2, with six mice in each group and one group per cage. Drug administration began the day after grouping and lasted for 17 days with a frequency of twice daily (BID). The drug was discontinued after 17 days to observe tumor changes.
During routine examinations, animals were monitored for tumor growth, activity level, food intake, water consumption, weight gain or loss, eye, fur, and any other abnormal behaviors. Animal deaths and clinical abnormalities were recorded. Tumor volume (TV) was measured twice weekly using calipers and calculated using the formula: TV = 0.5a × b^2, wherein a is the longest diameter of the tumor and b is the shortest diameter. Body weight was recorded twice weekly, concurrently with tumor volume measurements.
If the animals' weight subsequently recovered to within a 10% loss compared to baseline, whether to continue the administration was based on the animals' condition. The in vivo experimental for an individual animal or the entire group would be terminated under the following conditions. The animals will be euthanized before death or coma. • ➢ If the animals' health condition deteriorated continuously, causing persistent suffering and is unable to eat or drink. • ➢ If the animal became emaciated, with a body weight loss exceeding 20% compared to the initial administration. • ➢ If the tumor volume of an individual mouse exceeded 3000 mm^3 or the mean tumor volume of the entire group exceeded 2000 mm^3.
All data were analyzed using GraphPad Prism 5.0. P value < 0.05 was considered statistically significant.

[5] = dynamic solubility in water and three biological solvents; type: physicochemical; conditions: 37°C, feed 5 mg/ml, read-out: S: solubility
Experimental: Finally, the volume is fixed with purified water.
0.17 g of sodium dihydrogen phosphate (NaH2PO4, anhydrous), 0.021 g of sodium hydroxide and 0.31 g of sodium chloride were weighed into a 50 mL volumetric flask respectively, about 48 mL of purified water was added for dissolution, the pH was adjusted to exactly 6.5 with 1M hydrochloric acid or 1M sodium hydroxide, and the volume was fixed with purified water. 0.11 g of SIF powder was then added, stirred and sonicated to completely dissolve the powder. The solution can be used only after being placed at room temperature for two hours to reach equilibrium.
0.41 mL of glacial acetic acid, 0.20 g of sodium hydroxide and 0.59 g of sodium chloride were weighed into a 50 mL volumetric flask respectively, and about 48 mL of purified water was added for dissolution, the pH was adjusted to exactly 5.0 with 1M hydrochloric acid or 1M sodium hydroxide, and the volume was fixed with purified water. 0.56 g of SIF powder was then added, stirred and sonicated to completely dissolve the powder. The solution can be used only after being placed at room temperature for two hours to reach equilibrium.
The solubility results of the two samples in SGF, FASSIT and FeSSIF are similar. […] Table 4-1 Summary of the dynamic solubility test results

[6] = pH 1.8, simulated gastric fluid, thermodynamic from solid, SGF
[7] = pH 5, thermodynamic from solid, FeSSIF
[8] = pH 6.5, thermodynamic from solid, FaSSIF
[9] = water, thermodynamic from solid, H2O

SMILES: Cc1cnc(-c2cc(N3CCc4nc(N5CCC(O)CC5)ncc4[C@H]3C)ncc2Cl)c(C)c1 [Fumarate crystal form F]
- mRNA Expression Level of Glil Gene (Gli1 Gene; 1 mg/kg i.g. BID × 3 days): 0.609 ± 0.140
- mRNA Expression Level of Glil Gene (Gli1 Gene; 3 mg/kg i.g. BID × 3 days): 0.359 ± 0.113
- mRNA Expression Level of Glil Gene (Gli1 Gene; 10 mg/kg i.g. BID × 3 days): 0.045 ± 0.035
- inhibition of Hedgehog signaling compared with the high-dose group of GDC-0449 (10 mg/kg) (Gli1 Gene; high-dose group (10 mg/kg)): significantly stronger inhibition
- Mean Body Weight at Day 0 ([1]; 1 mg/kg group): 23.9 ± 3.1 g
- Body Weight Change Rate (%) ([1]; 1 mg/kg i.g. BID): 17.2%
- Mean Body Weight at Dosing Endpoint ([1]; 1 mg/kg i.g. BID): 28.0 ± 2.2 g
- Mean Body Weight at Day 0 ([1]; 3 mg/kg group): 24.6 ± 1.8 g
- Body Weight Change Rate (%) ([1]; 3 mg/kg i.g. BID): 8.5%
- Mean Body Weight at Dosing Endpoint ([1]; 3 mg/kg i.g. BID): 26.7 ± 2.2 g
- Mean Body Weight at Day 0 ([1]; 10 mg/kg group): 22.4 ± 2.1 g
- Body Weight Change Rate (%) ([1]; 10 mg/kg i.g. BID): 13.8%
- Mean Body Weight at Dosing Endpoint ([1]; 10 mg/kg i.g. BID): 25.5 ± 1.7 g
- impact on the body weight of tumor-bearing mice during the treatment period ([1]; administered doses, i.g. BID × 17 days): no significant impact
- AUC(0-t) at 24 h (in vivo): 14300 ng·h/mL
- Cmax (in vivo): 2850 ng/mL
- bioavailability (in vivo): 97.5%
- abnormal behaviors or animal deaths during the administration period [2]: no abnormal behaviors or animal deaths
- Cmax higher than that of the positive drug GDC-0449 [3]: about 1 fold
- Tumor Volume at Day 0 (mm^3) ([4]; 1 mg/kg group): 220.5 ± 43.7 mm^3
- Tumor Volume ([4]; 1 mg/kg i.g. BID × 17 days, day 0 after grouping): 220.5 ± 43.7 mm3
- Tumor Volume ([4]; 1 mg/kg i.g. BID × 17 days, day 3): 244.9 ± 82.4 mm3
- Tumor Volume ([4]; 1 mg/kg i.g. BID × 17 days, day 6): 483.8 ± 252.8 mm3
- Tumor Volume ([4]; 1 mg/kg i.g. BID × 17 days, day 9): 759.7 ± 401.1 mm3
- Tumor Volume ([4]; 1 mg/kg i.g. BID × 17 days, day 12): 1234.4 ± 582.9 mm3
- Tumor Volume ([4]; 1 mg/kg i.g. BID × 17 days, day 15): 2056.6 ± 1094.9 mm3
- Tumor Volume ([4]; 1 mg/kg i.g. BID × 17 days, day 18): 2868.8 ± 1372.9 mm3
- Tumor Volume ([4]; 1 mg/kg i.g. BID × 17 days, day 21, drug withdrawal observation): 4176.0 ± 1871.1 mm3
- T/C (%) ([4]; 1 mg/kg i.g. BID): 124.5%
- Tumor Volume at Dosing Endpoint (mm^3) ([4]; 1 mg/kg i.g. BID): 2868.8 ± 1372.9 mm^3
- Fold Change in Tumor Volume ([4]; 1 mg/kg i.g. BID): 12.80 ± 4.95
- Tumor Volume at Day 0 (mm^3) ([4]; 3 mg/kg group): 244.1 ± 17.1 mm^3
- Tumor Volume ([4]; 3 mg/kg i.g. BID × 17 days, day 0 after grouping): 244.1 ± 17.1 mm3
- Tumor Volume ([4]; 3 mg/kg i.g. BID × 17 days, day 3): 205.3 ± 26.0 mm3
- Tumor Volume ([4]; 3 mg/kg i.g. BID × 17 days, day 6): 147.7 ± 56.5 mm3
- Tumor Volume ([4]; 3 mg/kg i.g. BID × 17 days, day 9): 140.1 ± 62.3 mm3
- Tumor Volume ([4]; 3 mg/kg i.g. BID × 17 days, day 12): 112.7 ± 46.9 mm3
- Tumor Volume ([4]; 3 mg/kg i.g. BID × 17 days, day 15): 125.4 ± 58.9 mm3
- Tumor Volume ([4]; 3 mg/kg i.g. BID × 17 days, day 18): 150.4 ± 77.2 mm3
- Tumor Volume ([4]; 3 mg/kg i.g. BID × 17 days, day 21, drug withdrawal observation): 199.3 ± 93.7 mm3
- Tumor Volume ([4]; 3 mg/kg i.g. BID × 17 days, day 23, drug withdrawal observation): 271.2 ± 131.7 mm3
- Tumor Volume ([4]; 3 mg/kg i.g. BID × 17 days, day 26, drug withdrawal observation): 604.1 ± 328.5 mm3
- Tumor Volume ([4]; 3 mg/kg i.g. BID × 17 days, day 29, drug withdrawal observation): 887.6 ± 407.9 mm3
- Tumor Volume ([4]; 3 mg/kg i.g. BID × 17 days, day 32, drug withdrawal observation): 1209.2 ± 513.6 mm3
- Tumor Volume ([4]; 3 mg/kg i.g. BID × 17 days, day 35, drug withdrawal observation): 1645.0 ±560.6 mm3
- Tumor Volume ([4]; 3 mg/kg i.g. BID × 17 days, day 38, drug withdrawal observation): 2352.0 ± 963.1 mm3
- T/C (%) ([4]; 3 mg/kg i.g. BID): 6.03%
- TGI (%) ([4]; 3 mg/kg i.g. BID): 93.97%
- Tumor Volume at Dosing Endpoint (mm^3) ([4]; 3 mg/kg i.g. BID): 150.4 ± 77.2 mm^3
- Fold Change in Tumor Volume ([4]; 3 mg/kg i.g. BID): 0.62 ± 0.33
- Tumor Volume at Day 0 (mm^3) ([4]; 10 mg/kg group): 234.5 ± 33.6 mm^3
- Tumor Volume ([4]; 10 mg/kg i.g. BID × 17 days, day 0 after grouping): 234.5 ± 33.6 mm3
- Tumor Volume ([4]; 10 mg/kg i.g. BID × 17 days, day 3): 187.9 ± 44.7 mm3
- Tumor Volume ([4]; 10 mg/kg i.g. BID × 17 days, day 6): 98.7 ± 28.9 mm3
- Tumor Volume ([4]; 10 mg/kg i.g. BID × 17 days, day 9): 47.9 ± 29.8 mm3
- Tumor Volume ([4]; 10 mg/kg i.g. BID × 17 days, day 12): 24.5 ± 14.9 mm3
- Tumor Volume ([4]; 10 mg/kg i.g. BID × 17 days, day 15): 10.9 ± 5.1 mm3
- Tumor Volume ([4]; 10 mg/kg i.g. BID × 17 days, day 18): 8.8 ± 6.1 mm3
- Tumor Volume ([4]; 10 mg/kg i.g. BID × 17 days, day 21, drug withdrawal observation): 14.7 ± 10.1 mm3
- Tumor Volume ([4]; 10 mg/kg i.g. BID × 17 days, day 23, drug withdrawal observation): 16.6 ± 9.7 mm3
- Tumor Volume ([4]; 10 mg/kg i.g. BID × 17 days, day 26, drug withdrawal observation): 18.1 ± 11.5 mm3
- Tumor Volume ([4]; 10 mg/kg i.g. BID × 17 days, day 29, drug withdrawal observation): 43.9 ± 37.3 mm3
- Tumor Volume ([4]; 10 mg/kg i.g. BID × 17 days, day 32, drug withdrawal observation): 92.2 + 101.2 mm3
- Tumor Volume ([4]; 10 mg/kg i.g. BID × 17 days, day 35, drug withdrawal observation): 214.8 + 254.9 mm3
- Tumor Volume ([4]; 10 mg/kg i.g. BID × 17 days, day 38, drug withdrawal observation): 347.4 + 445.9 mm3
- T/C (%) ([4]; 10 mg/kg i.g. BID): 0.39%
- TGI (%) ([4]; 10 mg/kg i.g. BID, TGI = [1 - RTV(treatment group) / RTV(control group)] × 100%): 99.61%
- Tumor Volume at Dosing Endpoint (mm^3) ([4]; 10 mg/kg i.g. BID): 8.8 ± 6.1 mm^3
- Fold Change in Tumor Volume ([4]; 10 mg/kg i.g. BID): 0.04 ± 0.03
- anti-tumor efficacy compared to the high-dose GDC-0449 (10 mg/kg) group ([4]; high-dose (10 mg/kg)): significantly superior
- inhibitory effect on tumor growth versus vehicle control group ([4]; low dose (1 mg/kg)): did not show a significant inhibitory effect
- recurrent tumor volume compared with the GDC-0449 group at the same time ([4]; medium and high-dose group, post-treatment observation period): significantly lower
- anti-tumor efficacy compared to the high-dose GDC-0449 (10 mg/kg) group ([4]; medium-dose (3 mg/kg)): significantly superior
- solubility at 1 h [5, 6]: 3600 µg/mL
- solubility at 2 h [5, 6]: 3500 µg/mL
- solubility at 4 h [5, 6]: 3600 µg/mL
- solubility at 24 h [5, 6]: 3500 µg/mL
- solubility at 1 h [5, 7]: 2500 µg/mL
- solubility at 2 h [5, 7]: 2800 µg/mL
- solubility at 4 h [5, 7]: 3100 µg/mL
- solubility at 24 h [5, 7]: 3100 µg/mL
- solubility at 1 h [5, 8]: 220 µg/mL
- solubility at 2 h [5, 8]: 210 µg/mL
- solubility at 4 h [5, 8]: 230 µg/mL
- solubility at 24 h [5, 8]: 210 µg/mL
- solubility at 1 h [5, 9]: 110 µg/mL
- solubility at 2 h [5, 9]: 130 µg/mL
- solubility at 4 h [5, 9]: 140 µg/mL
- solubility at 24 h [5, 9]: 150 µg/mL

Reference: EP4696689A1, “SALT FORM AND CRYSTAL FORM OF CHIRAL HETEROCYCLIC COMPOUND HAVING HEDGEHOG PATHWAY ANTAGONIST ACTIVITY” (Suzhou Kintor Pharmaceuticals, Inc., priority 2023, dated 2024)
